From patent publication US20250319056A1, “METHODS FOR TREATING CANCER” (THE TRUSTEES OF INDIANA UNIVERSITY, priority 2024, published 2025) come the findings set out here.

Series [1] is described as follows: AlamarBlue cell viability assay, non-cancerous intestine FHs-74Int cells. Particulars: human, FHs-74Int non-cancerous intestine cells, Human Cell Viability CC50 Intestine (FHs 74Int), non-cancerous intestine cells, AlamarBlue, 48 h. For orientation: Alamar Blue is a resazurin reagent that responds to reducing activity.
Series [2] concerns NCI-60 cancer cell panel. Put plainly: NCI-60 panel single-dose cell growth screen. Type of series: cell-based. Particulars: single dose 10 μM; 0 = cytostatic, -100% = cytocidal, +100% = growth. On the procedure: FIGS. 10A-10J show cell growth results for 10 lead candidate inhibitors (compound 162, FIG. 10A; compound 163, FIG. 10B; compound 164, FIG. 10C; compound 4, FIG. 10D; compound 165, FIG. 10E; compound 139, FIG. 10F; compound 132, FIG. 10G; compound 143, FIG. 10H; compound 147, FIG. 10I; compound 128, FIG. 10J) tested at 10 μM against the NCI cancer cell panel. Zero indicates no cells growth/death from what was initially plated (cytostatic inhibition). −100% indicates […] (cytocidal inhibition). +100% indicates cell growth.
In a previous study evaluating the anti-cancer effects of ABK inhibitors, the National Cancer Institute (NCI) database was explored for existing cytotoxicity results for any compounds bearing α,β-unsaturated ketone moieties against the comprehensive NCI-60 cancer cell panel. […] The HQ-NAH and NF-NAH inhibitor library was explored based on the similarity to Nifuroxazide's scaffold. […] Initial screening was performed at a single concentration of 10 μM, and cell growth results are presented in aggregate based on cancer cell origin (FIGS. 10A-10J).

The target in series [3] is T1, GroEL/ES (Escherichia coli, UniProt P0A6F5).
T1 construct: made in house; host or cells: NEB 5-alpha E. coli for GroEL; E. coli BL21 (DE3) for GroES
T1 sequence (P0A6F5 2-548): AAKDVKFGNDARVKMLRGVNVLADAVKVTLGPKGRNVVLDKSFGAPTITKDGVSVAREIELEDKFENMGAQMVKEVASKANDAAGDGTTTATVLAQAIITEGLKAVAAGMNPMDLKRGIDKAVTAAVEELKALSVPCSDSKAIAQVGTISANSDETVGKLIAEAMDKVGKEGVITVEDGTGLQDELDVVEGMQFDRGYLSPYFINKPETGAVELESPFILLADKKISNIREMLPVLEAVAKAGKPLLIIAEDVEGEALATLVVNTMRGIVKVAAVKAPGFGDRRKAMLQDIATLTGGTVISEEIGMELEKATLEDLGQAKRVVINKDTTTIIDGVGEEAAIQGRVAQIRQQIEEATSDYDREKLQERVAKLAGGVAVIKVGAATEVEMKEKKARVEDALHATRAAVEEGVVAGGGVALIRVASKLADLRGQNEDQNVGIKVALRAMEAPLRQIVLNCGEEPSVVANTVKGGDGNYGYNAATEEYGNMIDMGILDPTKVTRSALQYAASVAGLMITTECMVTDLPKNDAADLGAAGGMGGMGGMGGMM
Put plainly: GroEL/ES-dMDH refolding assay. Type of series: biochemical, E. coli.

Series [4] concerns DLD-1 cells. Put plainly: AlamarBlue cell viability assay, DLD-1 colon cancer cells. The conditions noted are these: Homo sapiens, 48 h with compound, ^BP = curve baseline plateaued between ~10-20%, read-out: Human Cell Viability EC50 Colon Cancer (DLD1). Type of series: cell-based.
Series [5] addresses T2, mHSP60/10 (Homo sapiens, UniProt P10809).
T2 construct: Processed human HSP60 (mHSP60—that would be in mitochondria) was expressed in Rosetta™ 2 (DE3) E. coli; octa-Histidine tag (TEV-cleavable) (N, cleaved yes); made in house; host or cells: E. coli Rosetta 2 (DE3) for mHSP60; Rosetta 2 (DE3) pLysS for HSP10
In words: mHSP60/10-mediated dMDH refolding assay. Type of series: biochemical. The conditions noted are these: denatured malate dehydrogenase client; read-out: IC50 mHSP60/10-dMDH refolding.

For series [6], the system named is HCT-116 cells. Put plainly: AlamarBlue cell viability assay, HCT-116 colon cancer cells. It is filed as cell-based, human. The conditions noted are these: for Average Selectivity Index: CC50 non-cancer cells (FHC, FHs 74Int) compared to EC50 HCT-116; for EC50: Homo sapiens, HCT-116, 48 h, AlamarBlue, 48 h with compound, read-out: Human Cell Viability EC50 Colon Cancer (HCT 116).

Series [7] has as its system HT-29 cells. In words: AlamarBlue cell viability assay, HT-29 colon cancer cells. It is filed as cell-based. Particulars: Homo sapiens, 48 h with compound, ^BP = curve baseline plateaued between ~10-20%.
Series [8] can be described thus: AlamarBlue cell viability assay, non-cancerous colon FHC cells. The conditions noted are these: human, FHC non-cancerous colon cells, Human Cell Viability CC50 Colon (FHC), non-cancerous colon cells, AlamarBlue, 48 h.
Series [9] deals with FHs-74Int cells. Put plainly: AlamarBlue cell viability assay, non-cancerous intestine FHs-74Int cells. The conditions noted are these: read-out: Human Cell Viability CC50 Intestine (FHs 74Int); non-cancerous intestine cells, AlamarBlue, 48 h.
Series [10] has as its system FHC cells. Put plainly: AlamarBlue cell viability assay, non-cancerous colon FHC cells. The conditions noted are these: read-out: Human Cell Viability CC50 Colon (FHC); non-cancerous colon cells, AlamarBlue, 48 h.
Series [11] has as its system NCI-60 cancer cell panel. Put plainly: NCI-60 panel dose-response cell growth testing. It is filed as cell-based. The conditions noted are these: follow-up dose response, range across NCI-60 cell lines. From the text: FIGS. 11A-11G show cell growth results in dose-response for 7 lead candidate inhibitors (compound 162, FIG. 11A; compound 164, FIG. 11B; compound 128, FIG. 11C compound 165, FIG. 11D; compound 139, FIG. 11E; compound 143, FIG. 11F; compound 147, FIG. 11G) from initial single-dose NCI-60 screen.
Therefore, they appeared to act in a cytocidal manner.

In general, CC50 refers to the concentration at which the toxic effect on the cells reaches its halfway point. A word on the EC50: it is the concentration at which the effect is half-maximal. For orientation: GI50 means the concentration giving 50% growth inhibition.

Each structure is given as a SMILES string. A value given as a limit tells only on which side of the number the result lay.

T2 sequence (P10809 27-573): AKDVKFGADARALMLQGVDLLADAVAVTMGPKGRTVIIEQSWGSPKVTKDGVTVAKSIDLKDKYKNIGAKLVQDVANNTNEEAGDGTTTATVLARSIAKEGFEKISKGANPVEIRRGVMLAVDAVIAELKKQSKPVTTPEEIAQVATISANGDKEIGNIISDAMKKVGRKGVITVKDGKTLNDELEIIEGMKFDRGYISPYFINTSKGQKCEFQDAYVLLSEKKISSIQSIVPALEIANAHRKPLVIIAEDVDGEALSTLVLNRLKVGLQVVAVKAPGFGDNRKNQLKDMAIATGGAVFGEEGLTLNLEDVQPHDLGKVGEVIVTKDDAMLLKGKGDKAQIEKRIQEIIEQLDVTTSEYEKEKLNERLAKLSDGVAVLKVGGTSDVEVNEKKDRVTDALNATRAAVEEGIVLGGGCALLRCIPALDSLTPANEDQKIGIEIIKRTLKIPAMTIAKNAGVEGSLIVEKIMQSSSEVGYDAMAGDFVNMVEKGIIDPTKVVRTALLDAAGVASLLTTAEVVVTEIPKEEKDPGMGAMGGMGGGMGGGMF

With `O=C(/C=C/c1cccc([N+](=O)[O-])c1)c1ccc(NC(=O)c2ccco2)cc1` [Compound 4, (E)-N-(4-(3-(3-nitrophenyl)acryloyl)phenyl)furan-2-carboxamide], the figures for the CC50 at 48 h in series [1] and in series [8] were 54 µM and above 100 µM, respectively. Also, in [2], the “cell growth % NCI cancer cell panel” value was “largely inactive”. In addition, the IC50 in [3] and in series [5] was 0.8 to 9 µM each time. Further, the EC50 in [4] was 39.7 µM; in series [6] it was 4 µM; in series [7] it was 3.6 µM. Moreover, in series [6], the “Average Selectivity Index” value amounted to 19.1.
`COc1ccc(C(=O)N/N=C/c2ccc(O)c3ncccc23)cc1` [Compound 18, N′-((8-hydroxyquinolin-5-yl)methylene)-4-methoxybenzohydrazide]: the half-maximal cytotoxic concentration (CC50) in series [9] was found to be 55 µM; in series [10], 28 µM. The results for the CC50 at 48 h in [1] and in series [8] were 54.9 µM and 28.4 µM, respectively. Besides, the IC50 in series [3] and in series [5] was 0.8 to 9 µM each time. In addition, the EC50 in series [4] is 3.8 µM; in series [6], 7.8 µM; in series [7], 3.5 µM. The “Average Selectivity Index” value in series [6] came to 5.3.
`O=C(N/N=C/c1ccc([N+](=O)[O-])o1)c1cccc(Oc2ccccc2)c1` [Compound 128, N′-((5-nitrofuran-2-yl)methylene)-3-phenoxybenzohydrazide] displayed a GI50 in series [11] of 1 to 31 µM. Also, the figures for the CC50 at 48 h in [1] and in [8] were 60 µM and 61 µM, respectively. The “cell growth % NCI cancer cell panel” value in series [2] is “a range of positive, negative, and zero growth”. The EC50 stood at 7.3 µM in [4], 3.5 µM in series [6] and 1.6 µM in series [7]. Besides, the “Average Selectivity Index” value in series [6] was 17.4.
Take `O=C(N/N=C/c1ccc(O)c2ncccc12)c1ccc(O)cc1` [Compound 139, 4-hydroxy-N′-((8-hydroxyquinolin-5-yl)methylene)benzohydrazide]: in [11], the 50% growth inhibitory concentration (GI50) lay within 1 to 5 µM. For the same compound, the CC50 at 48 h in series [1] is 56 µM; in [8] it was above 100 µM. Also, in series [2], the “cell growth % NCI cancer cell panel” value is on record as “around 0%”. Further, the EC50 in [4] was 19 µM; in [6], 7.4 µM; in series [7], 6.3 µM. For the same compound, the “Average Selectivity Index” value in series [6] is 11.
Take `O=C(N/N=C/c1ccc(O)c2ncccc12)c1cccc(Oc2ccccc2)c1` [Compound 143, N′-((8-hydroxyquinolin-5-yl)methylene)-3-phenoxybenzohydrazide]: the GI50 in series [11] was 0.2 to 0.4 µM. Moreover, the CC50 at 48 h in series [1] came out at 21 µM. Further, the “cell growth % NCI cancer cell panel” value in series [2] is reported as “negative % growth”. Also, in series [6], the “Average Selectivity Index” value is reported as 4.8 and the EC50 turned out to be 6.5 µM. This compound yielded a CC50 at 48 h in [8] of 41 µM.
As to `CCOc1ccc(S(=O)(=O)Nc2ccc(C(=O)N/N=C/c3ccc(O)c4ncccc34)cc2)cc1` [Compound 147, 4-ethoxy-N-(4-(2-((8-hydroxyquinolin-5-yl)methylene)hydrazine-1-carbonyl)phenyl)benzenesulfonamide], in series [11], the GI50 was in the range of 0.2 to 0.4 µM. Also, the values for the CC50 at 48 h in series [1] and in series [8] were 40 µM and 52 µM, respectively. For the same compound, the “cell growth % NCI cancer cell panel” value in [2] is given as “negative % growth”. For the same compound, the EC50 is 6.2 µM in [4], 1.8 µM in series [6] and 2.9 µM in series [7]. Besides, the “Average Selectivity Index” value in series [6] is 25.
On to `Cc1ccc(S(=O)(=O)Nc2ccc(-c3nc4cc(NS(=O)(=O)c5ccc(C)cc5)ccc4o3)cc2)cc1` [Compound 162, 4-methyl-N-(4-(5-((4-methylphenyl)sulfonamido)benzo[d]oxazol-2-yl)phenyl)benzenesulfonamide], for which, in series [11], the GI50 fell in the range of 1 to 5 µM. Further, in [2], the “cell growth % NCI cancer cell panel” value is “negative % growth”.
The corresponding values for `COc1ccccc1S(=O)(=O)Nc1ccc(-c2nc3cc(NS(=O)(=O)c4ccccc4OC)ccc3o2)cc1` [Compound 164, 2-methoxy-N-(4-(5-((2-methoxyphenyl)sulfonamido)benzo[d]oxazol-2-yl)phenyl)benzenesulfonamide] are 1 to 5 µM and “around 0%”.
Compound `O=C(Nc1ccc(Sc2nc3ccccc3s2)c(Cl)c1)c1cc(Br)ccc1O` [Compound 165, N-(4-(Benzo[d]thiazol-2-ylthio)-3-chlorophenyl)-5-bromo-2-hydroxybenzamide] displayed a GI50 in series [11] of 1 to 5 µM. In series [2], the “cell growth % NCI cancer cell panel” value is “negative % growth”.
